As a reminder, the melting point is the temperature, or range, at which the solid turns liquid.

The text below walks through data of patent US6706698B2, “α-Substituted β-aminoethyl phosphonate derivatives” (Ilex Products, Inc., priority 2000, dated 2004).

Molecules are shown by their SMILES.

The test system of one data set is apo (a). Briefly: apo (a) secretion in primary cultures of Cynomolgus hepatocytes (ELISA). Format: cell-based, Cynomolgus monkey. The conditions noted are these: Macaca fascicularis, Hepatocyte, 6-24 hours, vs ethanol control, read-out: change in apo (a) secretion in culture medium, percentage of control. How it is done:
The compounds of formula (I) were assayed for being able to effectively lower the production of apo (a) in primary cultures of Cynomolgus hepatocytes.
Hepatocytes were isolated from livers of male adult Cynomolgus monkeys by the two-step collagenase perfusion method according to C. Guguen-Guillouzo and A. Guillouzo “Methods for preparation of adult and fetal hepatocytes” p.1-12 in “Isolated and Cultured Hepatocytes”, les editions Inserm Paris and John Libbey Eurotext London (1986).
The viability of cells was determined by Trypan blue staining. The cells were then seeded at a density of 1.5-2.105 viable cells per 2 cm^2 in 24 well tissue culture plates in a volume of 500 μl per well of Williams E tissue culture medium containing 10% fetal calf serum. Cells were incubated for 6-24 hours at 37° C. in a CO2 incubator (5% CO2) in the presence of 20 μM of the test compounds dissolved in ethanol. Four wells were used for each compound. Nicotinic acid and steroid hormones were used as references to validate the assay system since they are known to decrease apo (a) in man. Control cells were incubated in the presence of ethanol only.
The amount of apo (a) secreted in culture medium was assayed directly by ELISA using a commercially available kit. Changes in apo (a) concentration in culture medium are given as the percentage of value measured for the control plates.
A general note: An ELISA detects its analyte on a solid surface through an enzyme-linked reagent.

For the compound `Cc1cc(C(CNc2cccnc2)P(=O)(OC(C)C)OC(C)C)cc(C)c1O` (stereo not drawn) [Compound 47, diisopropyl α-(3,5-dimethyl-4-hydroxyphenyl)-β-[N-(3-pyridyl)-amino]-ethylphosphonate], the inhibition at 20 µM with apo (a) lay within 19 to 55%. On to `CCOP(=O)(OCC)C(CNc1cnccn1)c1cc(C)c(O)c(C)c1` (stereo not drawn) [Example 25, Diethyl α-(3,5-dimethyl-4-hydroxyphenyl)-β-[N-(pyrazinyl)-amino]-ethylphosphonate], for which the inhibition at 20 µM in the data set with apo (a) was 19 to 55%.

`CCOP(=O)(OCC)C(CNc1nccs1)c1cc(C)c(O)c(OC)c1` (stereo not shown): the melting point lay in the range of 85 to 87 °C. Compound `CCOc1cc(C(CNc2cccnc2)P(=O)(OCC)OCC)cc(C)c1O` (stereo not drawn) [Compound 55, diethyl α-(3-ethoxy-4-hydroxy-5-methylphenyl)-β-[N-(3-pyridyl)-amino]-ethylphosphonate] had a melting point of 155 to 156 °C. Besides, in the data set with apo (a), the inhibition at 20 µM was in the range of 19 to 55%. For the compound `CCOP(=O)(OCC)C(CNc1cnccn1)c1cc(C)c(O)c(C(C)(C)C)c1` (stereo not drawn) [Example 26, Diethyl α-(3-tert-butyl-4-hydroxy-5-methylphenyl)-β-[N-(pyrazinyl)-amino]-ethylphosphonate], in the data set with apo (a), the inhibition at 20 µM lay in the range of 19 to 55%. With `CCOP(=O)(OCC)C(CNc1ncccn1)c1cc(C)c(O)c(OC)c1` (stereo not drawn) [Compound 53, diethyl α-(4-hydroxy-3-methoxy-5-methylphenyl)-β-[N-(2-pyrimidinyl)-amino]-ethylphosphonate], the melting point fell in the range of 133 to 136 °C. Also, in the data set on apo (a), the inhibition at 20 µM fell in the range of 19 to 55%. Compound `CCOP(=O)(OCC)C(CNc1cccnc1)c1cc(OC)c(O)c(OC)c1` (stereo not shown) yielded a melting point of 152 to 154 °C. Regarding `COc1cc(C(CNc2cccnc2)P(=O)(OC(C)C)OC(C)C)cc(C)c1O` (stereo not drawn) [Compound 35, diisopropyl α-(4-hydroxy-3-methoxy-5-methylphenyl)-β-[N-(3-pyridyl)amino]-ethylphosphonate], the inhibition at 20 µM in the data set on apo (a) lay within 19 to 55%. Regarding `COc1cc(C(CNc2cnccn2)P(=O)(OC(C)C)OC(C)C)cc(OC)c1O` (stereo not drawn) [Compound 43, diisopropyl α-(3,5-dimethoxy-4-hydroxyphenyl)-β-[N-(pyrazinyl)-amino]-ethylphosphonate], the melting point fell in the range of 169 to 171 °C. For the same compound, the inhibition at 20 µM in the data set on apo (a) lay in the range of 19 to 55%. With `CCOP(=O)(OCC)C(CNc1ccon1)c1cc(C)c(O)c(OC)c1` (stereo not drawn) [Compound 87, diethyl α-(4-hydroxy-3-methoxy-5-methylphenyl)-β-[N-(3-isoxazolyl)-amino]-ethylphosphonate], the inhibition at 20 µM with apo (a) was in the range of 19 to 55%. On the same count and under the same terms, in the case of `CCOP(=O)(OCC)C(CNc1nc2ccccc2s1)c1cc(C)c(O)c(OC)c1` (stereo not drawn) [Compound 81, diethyl α-(4-hydroxy-3-methoxy-5-methylphenyl)-β-[N-(2-benzothiazolyl)-amino]-ethylphosphonate] it was 19 to 55%. Consider `CCOP(=O)(OCC)C(CNc1cnccn1)c1cc(C)c(O)c(OC)c1` (stereo not drawn) [Compound 44, diethyl α-(4-hydroxy-3-methoxy-5-methylphenyl)-β-[N-(pyrazinyl)-amino]-ethylphosphonate], for which, in the data set with apo (a), the inhibition at 20 µM lay in the range of 19 to 55%. Compound `CCOP(=O)(OCC)C(CNc1cnccn1)c1cc(OC)c(O)c(OC)c1` (stereo not drawn) [Compound 42, diethyl α-(3,5-dimethoxy-4-hydroxyphenyl)-β-[N-(pyrazinyl)-amino]-ethylphosphonate] returned a melting point of 147 to 148 °C. In the data set on apo (a), the inhibition at 20 µM fell in the range of 19 to 55%. With `COc1cc(C(CNc2cccnc2)P(=O)(OC(C)C)OC(C)C)cc(OC)c1O` (stereo not drawn) [Compound 33, diisopropyl α-(3,5-dimethoxy-4-hydroxyphenyl)-β-[N-(3-pyridyl)-amino]-ethylphosphonate], the melting point is 156 to 158 °C. For the same compound, in the data set on apo (a), the inhibition at 20 µM lay in the range of 19 to 55%.
